Laboratory results as given in patent publication US5382586A, “Aryl (or heteroaryl)piperazinylalkylazole derivatives, their preparation and their application as medicaments” (priority 1991, dated 1995).

What was measured:
[1] = system: mice, abstinence syndrome induced by cocaine, diazepam, alcohol or nicotine; experiment: light box/dark box test: inhibition of the abstinence syndrome; format: in vivo, mouse; parameters: Time in box, dark (D) / Latent period L-D: unit not given here
Protocol: The light box/dark box test described by B. Costall et al. (J. Phar. Pharmacol., 1988, 40: 494-500) is used. The mouse is placed in the light zone of a box divided into two compartments, one brightly illuminated, the light box, and the other with little illumination, the dark box.
1) The number of times the mouse stands up on the hind paws in each compartment during a 5 minute period is counted (see Column 1 of Table V).
2) The activity in each compartment is given by counting the number of crossings through the squares which form the divisions of each compartment (see Column 2 of Table V).
3) The time passed in the dark box during the 5 minute counting period is determined (see Column 3 of Table 5).
4) The initial latent period is determined, that is to say the time which elapses after the animal is placed in the light box, at the start of the test, before it enters the dark box (see Column 4 of Table 5).
1) Dependency on a given treatment (diazepam, cocaine, alcohol or nicotine) employing daily administration over a period of 7 or 14 days.
Diazepam: 10 mg/kg i.p. twice per day over a period of 7 days.
Cocaine: 1 mg/kg i.p. over a period of 14 days.
Alcohol: Administered at 8% weight/volume in the drinking water over a period of 14 days. Nicotine: 0.1 mg/kg i.p. twice per day over a period of 7 days.
3) Other different groups receive, in addition to diazepam, cocaine, alcohol or nicotine, a concomitant treatment with products which are the subject of the present invention and, by way of comparison, with buspirone or ipsapirone.
The product described and the doses tested were: 4,5-dichloro-2-methyl-1-{4-[4-(2-pyrimidinyl)-1-piperazinyl]-butyl}-1H-imidazole citrate.
1 μg/kg p.o. twice per day.

[2] = system: norepinephrine-induced death in rats; experiment: norepinephrine antagonism test in rats (antihypertensive activity); format: in vivo, rat (male Wister); settings: D = 40 mg/kg, i.p.; rat; norepinephrine 1.25 mg/kg i.v. after 2 hours
Protocol: This activity is manifested by the protection of animals before death induced by an intravenous injection of norepinephrine, which produces a hypertensive attack in rats.
Male Wister rats weighing 200 grammes are used in this test. The product to be studied is administered intraperitoneally and 1.25 mg/kg (i.v.) of norepinephrine are administered after 2 hours.
The initial administration dose in these studies is 40 mg/kg (i.p.).

[3] = system: conditioned avoidance response in male Wistar rats; experiment: conditioned avoidance response test (inhibition of the conditioned avoidance response; anxiolytic/tranquillising activity); format: in vivo, rat (male Wistar); settings: rat
Method in brief: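 Male Wistar rats (200 g) trained over three days in a shuttle box to jump a barrier within 30 s to avoid foot shock (5 mA); only rats meeting a training score threshold used. Compound or vehicle given orally 45 min before testing; suppression of conditioned avoidance recorded.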

[4] = 24 h after stopping alcohol (alone, or with the named product; Ex. 42 at 1 μg/kg p.o. twice per day)
[5] = 24 h after stopping cocaine (alone, or with the named product; Ex. 42 at 1 μg/kg p.o. twice per day)
[6] = 24 h after stopping diazepam (alone, or with the named product; Ex. 42 at 1 μg/kg p.o. twice per day)
[7] = 24 h after stopping nicotine (alone, or with the named product; Ex. 42 at 1 μg/kg p.o. twice per day)

Cc1nc(Cl)c(Cl)n1CCCCN1CCN(c2ncccn2)CC1.O=C(O)CC(O)(CC(=O)O)C(=O)O [Example 42, 4,5-dichloro-2-methyl-1-{4-[4-(2-pyrimidinyl)-1-piperazinyl]-butyl}-1H-imidazole citrate]
Activity within 5 min period, dark box (D) [1, 4]: 23 | Activity within 5 min period, light box (L) [1, 4]: 97 | Latent period L-D [1, 4]: 20 | Number of times standing erect within 5 min. period, dark box (D) [1, 4]: 17 | Number of times standing erect within 5 min. period, light box (L) [1, 4]: 86 | Time in box, dark (D) [1, 4]: 26 | Activity within 5 min period, dark box (D) [1, 5]: 23 | Activity within 5 min period, light box (L) [1, 5]: 92 | Latent period L-D [1, 5]: 26 | Number of times standing erect within 5 min. period, dark box (D) [1, 5]: 20 | Number of times standing erect within 5 min. period, light box (L) [1, 5]: 86 | Time in box, dark (D) [1, 5]: 30 | Activity within 5 min period, dark box (D) [1, 6]: 19 | Activity within 5 min period, light box (L) [1, 6]: 96 | Latent period L-D [1, 6]: 28 | Number of times standing erect within 5 min. period, dark box (D) [1, 6]: 17 | Number of times standing erect within 5 min. period, light box (L) [1, 6]: 85 | Time in box, dark (D) [1, 6]: 36 | Activity within 5 min period, dark box (D) [1, 7]: 20 | Activity within 5 min period, light box (L) [1, 7]: 102 | Latent period L-D [1, 7]: 23 | Number of times standing erect within 5 min. period, dark box (D) [1, 7]: 18 | Number of times standing erect within 5 min. period, light box (L) [1, 7]: 90 | Time in box, dark (D) [1, 7]: 29 | anxiolytic response when the administration is stopped ([1]; diazepam, cocaine, alcohol or nicotine stopped, 1 μg/kg p.o. twice per day): maintains a significant anxiolytic response | inhibition of the abstinence syndrome ([1]; induced by diazepam, cocaine, alcohol and nicotine, 1 μg/kg p.o. twice per day): inhibits the abstinence syndrome | Activity % (norepinephrine antagonistic antihypertensive activity) [2]: 0% | Activity % (inhibition of the conditioned avoidance response) ([3]; D = 80 mg/kg, p.o., 45 min before test): 82% | ED50 ([3]; po, 0.75 h): 24.5 mg/kg
